Assay results taken from patent publication US10376520B2, “Methods for the treatment of cardiovascular disorders” (Galapagos NV, priority 2015, dated 2019).

System: RA patients
Assay: Total cholesterol determination, Study 2 (RA patients, monotherapy with Compound 1)
Type: in vivo, human
From the text: Randomized, double-blind, placebo-controlled, multicenter, phase IIb dose finding study of Compound 1 (dosed as a [Compound 1:HCl:3H2O]) administered for 24 weeks as monotherapy to subjects with moderately to severely active rheumatoid arthritis who have an inadequate response to methotrexate alone
Double-blind, placebo-controlled, monotherapy study in subjects with moderately to severely active RA who have an inadequate response to methotrexate (MTX) (oral or parenteral).
280 subjects randomized to one of 3 doses of Compound 1 (dosed as a [Compound 1:HCl:3H2O]) or to placebo, given once daily (q.d.).
Twelve weeks of treatment with Compound 1 (dosed as a [Compound 1:HCl:3H2O]) at 50 mg, 100 mg, or 200 mg q.d.; or placebo. At Week 12, all subjects on placebo and the subjects on the 50 mg dose who have not achieved 20% improvement in swollen joint count (SJC66) and tender joint count (TJC68) will be assigned to 100 mg q.d. in a blinded fashion and will continue treatment until Week 24. Subjects in the other groups will maintain their randomized treatment until Week 24.
This method is based on the determination of Δ^4 cholestenone after enzymatic cleavage of the cholesterol ester by cholesterol esterase, conversion of cholesterol by cholesterol oxidase, and subsequent measurement by the Trinder reaction of the hydrogen peroxide formed (Allain et al., 1974).
Cholesterol esters are cleaved by the action of cholesterol esterase to yield free cholesterol and fatty acids. Cholesterol oxidase then catalyzes the oxidation of cholesterol to cholest-4-en-3-one and hydrogen peroxide. In the presence of peroxidase, the hydrogen peroxide formed effects the oxidative coupling of phenol and 4-aminophenazone to form a red quinone-imine dye. The color intensity of the dye formed is directly proportional to the cholesterol concentration. It is determined by measuring the increase in absorbance.
Human serum and plasma samples cholesterol determination was done on a Roche/Hitachi Cobas c 701/702 system which automatically calculate the analyte concentration of each sample.

[1] = placebo switching to 100 mg q.d. at week 12, week 16
[2] = placebo switching to 100 mg q.d. at week 12, week 20
[3] = placebo switching to 100 mg q.d. at week 12, week 24

## O=C(Nc1nc2cccc(-c3ccc(CN4CCS(=O)(=O)CC4)cc3)n2n1)C1CC1 [Compound 1, cyclopropanecarboxylic acid {5-[4-(1,1-dioxo-thiomorpholin-4-ylmethyl)-phenyl]-[1,2,4]triazolo[1,5-a]pyridin-2yl}-amide]
200 mg q.d., week 4
  [total cholesterol] Mean percentage CFB - 24 weeks results: 9.35%
  [total cholesterol] Median percentage CFB - 24 weeks results: 7.39%
200 mg q.d., week 8
  [total cholesterol] Mean percentage CFB - 12 weeks results: 9.62%
  [total cholesterol] Mean percentage CFB - 24 weeks results: 9.62%
  [total cholesterol] Median percentage CFB - 24 weeks results: 9.01%
200 mg q.d., week 12
  [total cholesterol] Mean percentage CFB - 12 weeks results: 13.12%
  [total cholesterol] Mean percentage CFB - 24 weeks results: 13.12%
  [total cholesterol] Median percentage CFB - 24 weeks results: 11.96%
200 mg q.d., week 16
  [total cholesterol] Mean percentage CFB - 24 weeks results: 11.40%
  [total cholesterol] Median percentage CFB - 24 weeks results: 8.36%
200 mg q.d., week 20
  [total cholesterol] Mean percentage CFB - 24 weeks results: 11.67%
  [total cholesterol] Median percentage CFB - 24 weeks results: 11.04%
200 mg q.d., week 24
  [total cholesterol] Mean percentage CFB - 24 weeks results: 12.83%
  [total cholesterol] Median percentage CFB - 24 weeks results: 9.81%
Study 2 12 weeks results, 50 mg q.d., week 1
  [Total cholesterol] Median CFB: 0.100 mmol/L
Study 2 12 weeks results, 50 mg q.d., week 2
  [Total cholesterol] Median CFB: 0.000 mmol/L
Study 2 12 weeks results, 50 mg q.d., week 4
  [Total cholesterol] Median CFB: 0.000 mmol/L
Study 2 12 weeks results, 50 mg q.d., week 8
  [Total cholesterol] Median CFB: 0.250 mmol/L
Study 2 12 weeks results, 50 mg q.d., week 12
  [Total cholesterol] Median CFB: 0.140 mmol/L
Study 2 12 weeks results, 100 mg q.d., week 1
  [Total cholesterol] Median CFB: 0.100 mmol/L
Study 2 12 weeks results, 100 mg q.d., week 2
  [Total cholesterol] Median CFB: 0.140 mmol/L
Study 2 12 weeks results, 100 mg q.d., week 4
  [Total cholesterol] Median CFB: 0.265 mmol/L
Study 2 12 weeks results, 100 mg q.d., week 8
  [Total cholesterol] Median CFB: 0.250 mmol/L
Study 2 12 weeks results, 100 mg q.d., week 12
  [Total cholesterol] Median CFB: 0.350 mmol/L
Study 2 12 weeks results, 200 mg q.d., week 1
  [Total cholesterol] Median CFB: 0.260 mmol/L
Study 2 12 weeks results, 200 mg q.d., week 2
  [Total cholesterol] Median CFB: 0.330 mmol/L
Study 2 12 weeks results, 200 mg q.d., week 4
  [Total cholesterol] Median CFB: 0.390 mmol/L
Study 2 12 weeks results, 200 mg q.d., week 8
  [Total cholesterol] Median CFB: 0.400 mmol/L
Study 2 12 weeks results, 200 mg q.d., week 12
  [Total cholesterol] Median CFB: 0.560 mmol/L
Study 2 24 weeks results, 50 mg q.d. non responders switching to 100 mg q.d. at week 12, week 1
  [Total cholesterol] Median CFB: 0.150 mmol/L
Study 2 24 weeks results, 50 mg q.d. non responders switching to 100 mg q.d. at week 12, week 2
  [Total cholesterol] Median CFB: 0.100 mmol/L
Study 2 24 weeks results, 50 mg q.d. non responders switching to 100 mg q.d. at week 12, week 4
  [Total cholesterol] Median CFB: 0.350 mmol/L
Study 2 24 weeks results, 50 mg q.d. non responders switching to 100 mg q.d. at week 12, week 8
  [Total cholesterol] Median CFB: 0.140 mmol/L
Study 2 24 weeks results, 50 mg q.d. non responders switching to 100 mg q.d. at week 12, week 12
  [Total cholesterol] Median CFB: 0.330 mmol/L
Study 2 24 weeks results, 50 mg q.d. non responders switching to 100 mg q.d. at week 12, week 16
  [Total cholesterol] Median CFB: 0.540 mmol/L
Study 2 24 weeks results, 50 mg q.d. non responders switching to 100 mg q.d. at week 12, week 20
  [Total cholesterol] Median CFB: 0.280 mmol/L
Study 2 24 weeks results, 50 mg q.d. non responders switching to 100 mg q.d. at week 12, week 24
  [Total cholesterol] Median CFB: 0.550 mmol/L
Study 2 24 weeks results, 50 mg q.d. responders, week 1
  [Total cholesterol] Median CFB: 0.020 mmol/L
Study 2 24 weeks results, 50 mg q.d. responders, week 2
  [Total cholesterol] Median CFB: -0.040 mmol/L
Study 2 24 weeks results, 50 mg q.d. responders, week 4
  [Total cholesterol] Median CFB: -0.030 mmol/L
Study 2 24 weeks results, 50 mg q.d. responders, week 8
  [Total cholesterol] Median CFB: 0.350 mmol/L
Study 2 24 weeks results, 50 mg q.d. responders, week 12
  [Total cholesterol] Median CFB: 0.060 mmol/L
Study 2 24 weeks results, 50 mg q.d. responders, week 16
  [Total cholesterol] Median CFB: 0.165 mmol/L
Study 2 24 weeks results, 50 mg q.d. responders, week 20
  [Total cholesterol] Median CFB: 0.215 mmol/L
Study 2 24 weeks results, 50 mg q.d. responders, week 24
  [Total cholesterol] Median CFB: 0.250 mmol/L
Study 2 24 weeks results, 100 mg q.d., week 1
  [Total cholesterol] Median CFB: 0.100 mmol/L
Study 2 24 weeks results, 100 mg q.d., week 2
  [Total cholesterol] Median CFB: 0.140 mmol/L
Study 2 24 weeks results, 100 mg q.d., week 4
  [Total cholesterol] Median CFB: 0.265 mmol/L
Study 2 24 weeks results, 100 mg q.d., week 8
  [Total cholesterol] Median CFB: 0.250 mmol/L
Study 2 24 weeks results, 100 mg q.d., week 12
  [Total cholesterol] Median CFB: 0.350 mmol/L
Study 2 24 weeks results, 100 mg q.d., week 16
  [Total cholesterol] Median CFB: 0.400 mmol/L
Study 2 24 weeks results, 100 mg q.d., week 20
  [Total cholesterol] Median CFB: 0.400 mmol/L
Study 2 24 weeks results, 100 mg q.d., week 24
  [Total cholesterol] Median CFB: 0.445 mmol/L
Study 2 24 weeks results, 200 mg q.d., week 1
  [Total cholesterol] Median CFB: 0.260 mmol/L
Study 2 24 weeks results, 200 mg q.d., week 2
  [Total cholesterol] Median CFB: 0.330 mmol/L
Study 2 24 weeks results, 200 mg q.d., week 4
  [Total cholesterol] Median CFB: 0.390 mmol/L
Study 2 24 weeks results, 200 mg q.d., week 8
  [Total cholesterol] Median CFB: 0.400 mmol/L
Study 2 24 weeks results, 200 mg q.d., week 12
  [Total cholesterol] Median CFB: 0.560 mmol/L
Study 2 24 weeks results, 200 mg q.d., week 16
  [Total cholesterol] Median CFB: 0.410 mmol/L
Study 2 24 weeks results, 200 mg q.d., week 20
  [Total cholesterol] Median CFB: 0.490 mmol/L
Study 2 24 weeks results, 200 mg q.d., week 24
  [Total cholesterol] Median CFB: 0.565 mmol/L
Study 2 24 weeks results, placebo switching to 100 mg q.d. at week 12, week 16
  [Total cholesterol] Median CFB: 0.200 mmol/L
Study 2 24 weeks results, placebo switching to 100 mg q.d. at week 12, week 20
  [Total cholesterol] Median CFB: 0.220 mmol/L
Study 2 24 weeks results, placebo switching to 100 mg q.d. at week 12, week 24
  [Total cholesterol] Median CFB: 0.300 mmol/L
[1]
  [total cholesterol] Mean percentage CFB - 24 weeks results: 5.14%
  [total cholesterol] Median percentage CFB - 24 weeks results: 3.87%
[2]
  [total cholesterol] Mean percentage CFB - 24 weeks results: 7.27%
  [total cholesterol] Median percentage CFB - 24 weeks results: 5.09%
[3]
  [total cholesterol] Mean percentage CFB - 24 weeks results: 6.98%
  [total cholesterol] Median percentage CFB - 24 weeks results: 5.57%
